Assay results reported in ChEMBL document CHEMBL1201862, “PubChem BioAssay data set” (2004).
Activity calls are given as the source filed them. Cut-off read from the data, not from the text of the source, for most assays here: actives have a measured EC50 and inactives only a lower limit.

How the values were obtained:
[1] = target: T1, Heat shock factor protein 1 (Mus musculus, UniProt P38532); test: enhancement of HSF1-driven luciferase signal – cell-based, NIH3T3, luminescence, dose retest, confirmation (AID 435004); format: functional;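 note: stress induced by proteasome inhibitor MG132 added 30 min after compound; luciferase reporter driven by HSF1 response element in NIH3T3 cells; actives raise luminescence as potentiators of the MG132 stress response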
T1 sequence (P38532 whole entry): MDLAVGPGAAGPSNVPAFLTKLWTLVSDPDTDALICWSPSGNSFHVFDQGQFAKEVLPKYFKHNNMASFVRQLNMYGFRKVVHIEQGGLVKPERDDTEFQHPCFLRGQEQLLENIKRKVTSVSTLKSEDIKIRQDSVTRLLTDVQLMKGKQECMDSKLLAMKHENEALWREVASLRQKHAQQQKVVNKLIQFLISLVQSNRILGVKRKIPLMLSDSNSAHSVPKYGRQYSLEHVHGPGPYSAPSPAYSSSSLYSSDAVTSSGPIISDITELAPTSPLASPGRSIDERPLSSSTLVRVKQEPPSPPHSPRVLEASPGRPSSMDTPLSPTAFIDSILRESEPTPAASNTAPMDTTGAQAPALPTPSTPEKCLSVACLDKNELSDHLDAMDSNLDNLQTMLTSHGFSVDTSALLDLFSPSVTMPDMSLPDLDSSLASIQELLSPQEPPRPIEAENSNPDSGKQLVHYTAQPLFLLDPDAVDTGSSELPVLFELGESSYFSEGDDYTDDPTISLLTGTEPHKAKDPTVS

[2] = target: T2, Corticotropin-releasing factor receptor 2/Corticotropin-releasing factor-binding protein (Homo sapiens, UniProt P24387+Q13324); test: activators of CRF receptor 2 with binding protein – uHTS hits, confirmation (AID 602473); format: functional; settings: read-out: EC50_Mean
T2 sequence (Q13324 whole entry): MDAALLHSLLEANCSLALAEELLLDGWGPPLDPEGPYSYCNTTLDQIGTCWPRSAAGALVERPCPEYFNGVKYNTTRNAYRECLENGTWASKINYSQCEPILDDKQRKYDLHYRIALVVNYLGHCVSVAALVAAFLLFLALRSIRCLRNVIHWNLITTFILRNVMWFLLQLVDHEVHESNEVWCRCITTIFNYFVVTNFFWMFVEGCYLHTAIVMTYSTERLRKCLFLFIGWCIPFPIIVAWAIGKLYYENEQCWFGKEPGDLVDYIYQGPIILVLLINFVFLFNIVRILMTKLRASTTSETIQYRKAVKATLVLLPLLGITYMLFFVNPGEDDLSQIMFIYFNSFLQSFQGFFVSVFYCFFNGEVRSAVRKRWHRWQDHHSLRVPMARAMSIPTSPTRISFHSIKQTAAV
T2 sequence (P24387 whole entry): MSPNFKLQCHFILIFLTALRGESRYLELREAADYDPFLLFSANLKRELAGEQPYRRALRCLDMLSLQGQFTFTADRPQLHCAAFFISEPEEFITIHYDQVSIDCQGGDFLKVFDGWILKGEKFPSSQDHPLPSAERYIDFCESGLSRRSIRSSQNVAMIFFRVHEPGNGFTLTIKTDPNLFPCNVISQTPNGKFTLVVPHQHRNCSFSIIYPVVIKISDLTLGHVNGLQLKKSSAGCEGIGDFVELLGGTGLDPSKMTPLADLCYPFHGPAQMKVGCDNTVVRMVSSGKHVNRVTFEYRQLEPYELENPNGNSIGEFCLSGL

[3] = non-specific 3'UTR reporter inhibition in Clone20-Shn3RL – cell-based, Renilla luciferase, cherry-picked, counter-screen for Shn3 inhibitor project, dose response (AID 624133); format: functional
[4] = system: INS1; test: INS-1E survival protection against cytokine death – cell-based, luminescence, retest, dose response (AID 449756); format: functional; settings: Rattus norvegicus;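 note: cell death triggered by IL-1 beta plus TNF-alpha plus IFN-gamma mixture; protective hits raise ATP signal compared with cytokine alone wells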
[5] = system: Streptococcus sp. 'group A'; test: Streptococcus pyogenes SK(-)GAS viability under kanamycin – luminescence, BacTiterGlo, confirmation, counter-screen for streptokinase expression inhibitor project, dose response (AID 1900); format: functional, organism-based
[6] = target: T3, Streptokinase A (Streptococcus pyogenes serotype M1, UniProt P10520); test: viability-normalized secreted streptokinase activity reduction – plasminogen activation absorbance, OD405, dose response (AID 1914); format: functional, Streptococcus pyogenes M1 GAS;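 note: secreted streptokinase activity via plasminogen activation per viability signal from cell pellet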
T3 sequence (P10520 whole entry): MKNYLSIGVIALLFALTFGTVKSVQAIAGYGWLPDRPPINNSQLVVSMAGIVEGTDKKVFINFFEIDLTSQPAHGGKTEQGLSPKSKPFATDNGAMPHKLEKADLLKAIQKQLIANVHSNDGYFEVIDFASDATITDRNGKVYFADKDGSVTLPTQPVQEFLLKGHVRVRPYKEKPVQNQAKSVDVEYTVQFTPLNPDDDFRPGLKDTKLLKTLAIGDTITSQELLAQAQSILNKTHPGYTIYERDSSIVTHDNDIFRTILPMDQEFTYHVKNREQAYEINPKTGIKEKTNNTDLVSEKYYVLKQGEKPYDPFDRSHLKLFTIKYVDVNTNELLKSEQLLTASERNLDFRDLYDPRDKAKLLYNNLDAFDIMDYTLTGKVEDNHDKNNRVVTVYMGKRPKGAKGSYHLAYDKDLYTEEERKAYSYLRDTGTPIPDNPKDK

[7] = system: Streptococcus; test: GAS UMAA2166 growth inhibition – luminescence, BacTiterGlo, counter-screen for streptokinase expression inhibitor project, dose response (AID 1915); format: functional, organism-based;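 note: potency for reduction of bacterial viability or growth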
[8] = target: T4, Rac GTPase-activating protein 1 (Homo sapiens, UniProt Q9H0H5); test: blockers of MgcRacGAP-driven Rac1 GTP hydrolysis – biochemical, ADP Hunter fluorescence, primary and confirmatory, confirmation (AID 624330); format: functional
T4 sequence (Q9H0H5 whole entry): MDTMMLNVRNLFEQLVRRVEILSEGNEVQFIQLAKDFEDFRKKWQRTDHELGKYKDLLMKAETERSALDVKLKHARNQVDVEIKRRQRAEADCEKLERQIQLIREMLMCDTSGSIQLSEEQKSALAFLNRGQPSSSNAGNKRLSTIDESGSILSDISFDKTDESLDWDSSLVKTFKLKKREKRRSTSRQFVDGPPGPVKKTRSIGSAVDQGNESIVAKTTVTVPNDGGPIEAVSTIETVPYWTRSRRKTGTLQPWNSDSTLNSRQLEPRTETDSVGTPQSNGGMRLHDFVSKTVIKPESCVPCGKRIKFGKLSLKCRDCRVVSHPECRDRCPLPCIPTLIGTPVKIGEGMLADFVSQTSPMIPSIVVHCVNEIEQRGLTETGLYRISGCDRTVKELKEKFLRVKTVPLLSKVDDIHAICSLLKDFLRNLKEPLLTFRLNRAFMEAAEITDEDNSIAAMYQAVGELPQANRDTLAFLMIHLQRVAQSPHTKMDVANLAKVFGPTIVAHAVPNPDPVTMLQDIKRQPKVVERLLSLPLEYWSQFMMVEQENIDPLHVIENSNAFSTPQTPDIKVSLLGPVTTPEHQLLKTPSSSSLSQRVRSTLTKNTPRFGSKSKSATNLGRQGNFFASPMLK

[9] = target: Genome polyprotein (dengue virus type 2, UniProt P29990); test: flavivirus cap methylation enzyme inhibition – biochemical, confirmation dose response, primary screen (AID 588689); format: functional
Genome polyprotein, sequence (P29990 2492-3391 limits assumed): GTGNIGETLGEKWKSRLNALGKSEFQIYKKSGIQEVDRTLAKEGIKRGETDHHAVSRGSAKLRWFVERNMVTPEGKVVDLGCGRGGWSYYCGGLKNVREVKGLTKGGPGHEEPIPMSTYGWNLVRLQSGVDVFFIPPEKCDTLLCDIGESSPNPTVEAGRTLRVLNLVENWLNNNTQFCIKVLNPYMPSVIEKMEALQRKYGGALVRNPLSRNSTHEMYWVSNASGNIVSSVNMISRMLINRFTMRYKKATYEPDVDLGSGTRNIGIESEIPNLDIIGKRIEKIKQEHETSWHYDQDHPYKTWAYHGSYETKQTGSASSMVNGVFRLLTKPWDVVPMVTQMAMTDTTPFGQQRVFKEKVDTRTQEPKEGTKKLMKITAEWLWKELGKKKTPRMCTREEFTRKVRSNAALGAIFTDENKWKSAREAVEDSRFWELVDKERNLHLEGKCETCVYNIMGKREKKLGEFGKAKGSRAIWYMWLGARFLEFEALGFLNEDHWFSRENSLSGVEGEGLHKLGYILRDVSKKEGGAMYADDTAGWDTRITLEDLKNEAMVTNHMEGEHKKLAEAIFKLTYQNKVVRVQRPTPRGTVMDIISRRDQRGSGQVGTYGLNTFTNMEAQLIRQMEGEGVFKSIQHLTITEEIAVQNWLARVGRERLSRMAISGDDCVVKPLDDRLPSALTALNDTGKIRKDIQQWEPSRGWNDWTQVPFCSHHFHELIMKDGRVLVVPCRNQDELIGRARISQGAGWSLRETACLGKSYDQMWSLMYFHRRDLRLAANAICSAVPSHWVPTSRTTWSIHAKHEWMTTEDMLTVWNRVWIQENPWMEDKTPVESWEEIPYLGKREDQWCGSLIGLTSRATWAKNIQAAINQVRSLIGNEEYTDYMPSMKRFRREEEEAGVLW

[10] = cells; format: functional, cell-based
[11] = cells; format: functional, cell-based; remark: listed apart in the source
[12] = target: Paired box protein Pax-8 (Homo sapiens, UniProt Q06710); test: PAX8 transcriptional activity inhibition in RMG-I – RMG-I cells, luciferase, cherry-pick, dose response (AID 687027); format: functional, cell-based;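 note: luciferase reporter driven by Pax8 target thyroperoxidase promoter measured by SteadyGlo luminescence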
Paired box protein Pax-8, sequence (Q06710 whole entry): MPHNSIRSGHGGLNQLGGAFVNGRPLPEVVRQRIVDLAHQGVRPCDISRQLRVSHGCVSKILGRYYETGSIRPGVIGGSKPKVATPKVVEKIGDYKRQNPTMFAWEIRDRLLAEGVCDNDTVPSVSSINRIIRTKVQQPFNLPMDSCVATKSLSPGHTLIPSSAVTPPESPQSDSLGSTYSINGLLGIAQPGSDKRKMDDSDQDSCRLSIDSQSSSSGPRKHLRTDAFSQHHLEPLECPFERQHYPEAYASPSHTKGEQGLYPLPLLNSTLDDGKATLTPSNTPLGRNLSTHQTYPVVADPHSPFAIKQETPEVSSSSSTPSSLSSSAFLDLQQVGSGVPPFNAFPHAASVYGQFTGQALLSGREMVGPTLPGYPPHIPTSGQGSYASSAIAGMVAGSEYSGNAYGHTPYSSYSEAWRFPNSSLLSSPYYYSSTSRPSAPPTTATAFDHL

COc1cc(C2NC(=O)NC(C)=C2C(=O)OC2CCCCC2)cc(Cl)c1O (stereo not given)
EC50 [1]: > 260 µM (inactive)

Cc1cc(C=C(C#N)C#N)ccc1N1CCCC1
EC50 [2]: 6.3 µM (active)

COc1ccc(S(=O)(=O)NCCC(=O)OCC(=O)NC2CC2)cc1
AC50 [3]: 33.7 µM (active)

Cc1cc(C(=O)C(C)OC(=O)c2ccc(NC(=O)CC#N)cc2)c(C)n1-c1ccc(OC(F)F)cc1 (stereo not given)
AC50 [4]: 4.26 µM (active)

CC1=C(C(=O)O)N2C(=O)C(NC(=O)Cc3ccccc3)C2SC1 (stereo not given)
EC50 [5]: 1.22 µM (active) | EC50 [6]: > 150 µM (not active) | EC50 [7]: 2.68 µM (active)

O=C1NC(=O)C(=Cc2coc3ccc(O)cc3c2=O)C(=O)N1
IC50 [8]: 150 µM (active) | IC50 [9]: > 100 µM (active)

CS(=O)(=O)c1ccc2nc(NC(=O)C3CC3)sc2c1
EC50 [10]: > 350 µM (not active) | EC50 [11]: > 350 µM (not active)

CO/N=C/c1cc([N+](=O)[O-])ccc1Sc1ccc(C)cc1
EC50 [1]: > 260 µM (inactive)

C/C(=N\NC(=O)c1ccoc1C)c1ccccc1O
AC50 [4]: 3.12 µM (active)

O=C(NNC(=O)c1ccccc1Br)c1ccc(Cl)cc1
EC50 [10]: > 350 µM (not active) | EC50 [11]: > 350 µM (not active)

CCC(Oc1ccccc1)C(=O)Nc1ccccc1N1CCCCC1 (stereo not given)
EC50 [5]: 10.3 µM (active) | EC50 [6]: 15.8 µM (active) | EC50 [7]: 19.9 µM (active)

Cc1ccccc1-c1cc(=O)c2c(O)cccc2o1
EC50 [1]: > 260 µM (inactive)

COc1cc(C2c3cc4c(c(O)c3CC3COC(=O)C32)OCO4)cc(OC)c1OC (stereo not given)
AC50 [12]: < 0.26 µM (active)

COc1ccccc1-c1ccc(SCC(=O)Nc2cc(C)on2)nn1
EC50 [1]: > 260 µM (inactive)

CCOC(=O)CC1NCCc2c1[nH]c1ccc(OC)cc21 (stereo not given)
EC50 [1]: > 260 µM (inactive)

Cc1ccc(-c2nnn(CC(=O)N(Cc3cccs3)C(C(=O)NC3CCCCC3)c3ccco3)n2)o1 (stereo not given)
EC50 [10]: > 350 µM (not active) | EC50 [11]: > 350 µM (not active)

COc1cc(/C=C2/C(=O)NN(c3ccc(F)cc3)C2=O)cc([N+](=O)[O-])c1O
IC50 [9]: > 100 µM (active)
